In the NIST ThermoML archive (doi:10.1021/je060203o):
± gives the expanded uncertainty stated by the source.

Settings: Liquid; for mass density: Vibrating tube method; for speed of sound: Pulse-echo method

CCCn1cc[n+](C)c1.O=S(=O)([N-]S(=O)(=O)C(F)(F)F)C(F)(F)F
Settings | mass density [kg/m3] | speed of sound [m/s]
298.15 K, 100 kPa | 1475.7 ± 2.5 | –
298.15 K, 500 kPa | – | 1236.4 ± 3.1
298.15 K, 1830 kPa | 1476.98 ± 2.6 | –
298.15 K, 3500 kPa | – | 1246.5 ± 3.1
298.15 K, 7000 kPa | – | 1258.2 ± 3.1
298.15 K, 10000 kPa | – | 1268 ± 3.1
298.15 K, 10020 kPa | 1483.13 ± 2.8 | –
298.15 K, 13500 kPa | – | 1279.2 ± 3.1
298.15 K, 14980 kPa | 1486.69 ± 3 | –
298.15 K, 17000 kPa | – | 1290 ± 3.1
298.15 K, 19750 kPa | 1490.06 ± 3.1 | –
298.15 K, 20000 kPa | – | 1299.2 ± 3.1
298.15 K, 25860 kPa | 1494.22 ± 3.2 | –
298.15 K, 30000 kPa | – | 1329.2 ± 3.2
298.15 K, 31480 kPa | 1497.95 ± 3.4 | –
298.15 K, 37770 kPa | 1502.01 ± 3.6 | –
298.15 K, 40000 kPa | – | 1357.5 ± 3.2
298.15 K, 44170 kPa | 1506.01 ± 3.8 | –
298.15 K, 50000 kPa | – | 1384.5 ± 3.2
298.15 K, 50750 kPa | 1509.97 ± 4 | –
298.15 K, 59590 kPa | 1515.1 ± 4.2 | –
298.15 K, 60000 kPa | – | 1410.3 ± 3.2
298.15 K, 70000 kPa | – | 1435.1 ± 3.2
298.15 K, 80000 kPa | – | 1459 ± 3.2
298.15 K, 90000 kPa | – | 1482.1 ± 3.2
298.15 K, 100000 kPa | – | 1504.5 ± 3.2
298.15 K, 112500 kPa | – | 1531.7 ± 3.2
298.15 K, 125000 kPa | – | 1557.6 ± 3.2
298.15 K, 137510 kPa | – | 1582.8 ± 3.2
298.15 K, 150000 kPa | – | 1606 ± 3.2
298.15 K, 162500 kPa | – | 1629.6 ± 3.2
298.15 K, 175000 kPa | – | 1652.5 ± 3.2
298.15 K, 187500 kPa | – | 1674.5 ± 3.2
298.15 K, 200000 kPa | – | 1695.9 ± 3.2
299.15 K, 100 kPa | 1474.62 ± 2.5 | –
299.15 K, 1830 kPa | 1475.87 ± 2.6 | –
299.15 K, 10020 kPa | 1482.12 ± 2.8 | –
299.15 K, 14980 kPa | 1485.68 ± 3 | –
299.15 K, 19750 kPa | 1489.01 ± 3.1 | –
299.15 K, 25860 kPa | 1493.18 ± 3.2 | –
299.15 K, 31480 kPa | 1496.89 ± 3.4 | –
299.15 K, 37770 kPa | 1500.95 ± 3.6 | –
299.15 K, 44170 kPa | 1504.95 ± 3.8 | –
299.15 K, 50750 kPa | 1509.07 ± 4 | –
299.15 K, 59590 kPa | 1514.22 ± 4.2 | –
300.15 K, 100 kPa | 1473.66 ± 2.5 | –
300.15 K, 1830 kPa | 1474.94 ± 2.6 | –
300.15 K, 10020 kPa | 1481.1 ± 2.8 | –
300.15 K, 14980 kPa | 1484.68 ± 2.9 | –
300.15 K, 19750 kPa | 1488.07 ± 3.1 | –
300.15 K, 25860 kPa | 1492.27 ± 3.2 | –
300.15 K, 31480 kPa | 1496.03 ± 3.4 | –
300.15 K, 37770 kPa | 1500.11 ± 3.6 | –
300.15 K, 44170 kPa | 1504.13 ± 3.8 | –
300.15 K, 50750 kPa | 1508.14 ± 4 | –
300.15 K, 59590 kPa | 1513.35 ± 4.2 | –
301.15 K, 100 kPa | 1472.79 ± 2.5 | –
301.15 K, 1830 kPa | 1474.07 ± 2.6 | –
301.15 K, 10020 kPa | 1480.19 ± 2.8 | –
301.15 K, 14980 kPa | 1483.74 ± 2.9 | –
301.15 K, 19750 kPa | 1487.1 ± 3.1 | –
301.15 K, 25860 kPa | 1491.35 ± 3.2 | –
301.15 K, 31480 kPa | 1495.08 ± 3.4 | –
301.15 K, 37770 kPa | 1499.16 ± 3.6 | –
301.15 K, 44170 kPa | 1503.18 ± 3.8 | –
301.15 K, 50750 kPa | 1507.27 ± 4 | –
301.15 K, 59590 kPa | 1512.51 ± 4.2 | –
302.15 K, 100 kPa | 1471.92 ± 2.5 | –
302.15 K, 1830 kPa | 1473.15 ± 2.6 | –
302.15 K, 10020 kPa | 1479.27 ± 2.8 | –
302.15 K, 14980 kPa | 1482.84 ± 2.9 | –
302.15 K, 19750 kPa | 1486.21 ± 3.1 | –
302.15 K, 25860 kPa | 1490.42 ± 3.2 | –
302.15 K, 31480 kPa | 1494.19 ± 3.4 | –
302.15 K, 37770 kPa | 1498.29 ± 3.6 | –
302.15 K, 44170 kPa | 1502.37 ± 3.8 | –
302.15 K, 50750 kPa | 1506.46 ± 3.9 | –
302.15 K, 59590 kPa | 1511.74 ± 4.2 | –
303.15 K, 100 kPa | 1471.14 ± 2.5 | –
303.15 K, 1830 kPa | 1472.39 ± 2.6 | –
303.15 K, 10020 kPa | 1478.49 ± 2.8 | –
303.15 K, 14980 kPa | 1482 ± 2.9 | –
303.15 K, 19750 kPa | 1485.41 ± 3.1 | –
303.15 K, 25860 kPa | 1489.57 ± 3.2 | –
303.15 K, 31480 kPa | 1493.32 ± 3.4 | –
303.15 K, 37770 kPa | 1497.43 ± 3.6 | –
303.15 K, 44170 kPa | 1501.5 ± 3.8 | –
303.15 K, 50750 kPa | 1505.6 ± 3.9 | –
303.15 K, 59590 kPa | 1510.93 ± 4.2 | –
308.15 K, 100 kPa | 1466.83 ± 2.5 | –
308.15 K, 500 kPa | – | 1214 ± 3.1
308.15 K, 1830 kPa | 1468.1 ± 2.6 | –
308.15 K, 3500 kPa | – | 1224.4 ± 3.1
308.15 K, 7000 kPa | – | 1236.2 ± 3.1
308.15 K, 10000 kPa | – | 1246.2 ± 3.1
308.15 K, 10020 kPa | 1474.12 ± 2.8 | –
308.15 K, 13500 kPa | – | 1257.6 ± 3.1
308.15 K, 14980 kPa | 1477.65 ± 2.9 | –
308.15 K, 17000 kPa | – | 1268.6 ± 3.1
308.15 K, 19750 kPa | 1480.89 ± 3 | –
308.15 K, 20000 kPa | – | 1278 ± 3.1
308.15 K, 25860 kPa | 1485.18 ± 3.2 | –
308.15 K, 30000 kPa | – | 1308.6 ± 3.2
308.15 K, 31480 kPa | 1489 ± 3.4 | –
308.15 K, 37770 kPa | 1493.05 ± 3.5 | –
308.15 K, 40000 kPa | – | 1337.1 ± 3.2
308.15 K, 44170 kPa | 1497.15 ± 3.7 | –
308.15 K, 50000 kPa | – | 1364.7 ± 3.2
308.15 K, 50750 kPa | 1501.36 ± 3.9 | –
308.15 K, 59590 kPa | 1506.81 ± 4.2 | –
308.15 K, 60000 kPa | – | 1391 ± 3.2
308.15 K, 70000 kPa | – | 1416.2 ± 3.2
308.15 K, 80000 kPa | – | 1440.3 ± 3.2
308.15 K, 90000 kPa | – | 1463.7 ± 3.2
308.15 K, 100000 kPa | – | 1486.4 ± 3.2
308.15 K, 112500 kPa | – | 1513.6 ± 3.2
308.15 K, 125000 kPa | – | 1539.9 ± 3.2
308.15 K, 137510 kPa | – | 1565.2 ± 3.2
308.15 K, 150000 kPa | – | 1589.6 ± 3.2
308.15 K, 162500 kPa | – | 1613.3 ± 3.2
308.15 K, 175000 kPa | – | 1636.3 ± 3.2
308.15 K, 187500 kPa | – | 1658.6 ± 3.2
308.15 K, 200000 kPa | – | 1680.4 ± 3.2
313.15 K, 100 kPa | 1462.07 ± 2.5 | –
313.15 K, 1830 kPa | 1463.28 ± 2.5 | –
313.15 K, 10020 kPa | 1469.31 ± 2.8 | –
313.15 K, 14980 kPa | 1472.86 ± 2.9 | –
313.15 K, 19750 kPa | 1476.15 ± 3 | –
313.15 K, 25860 kPa | 1480.43 ± 3.2 | –
313.15 K, 31480 kPa | 1484.36 ± 3.3 | –
313.15 K, 37770 kPa | 1488.4 ± 3.5 | –
313.15 K, 44170 kPa | 1492.56 ± 3.7 | –
313.15 K, 50750 kPa | 1496.83 ± 3.9 | –
313.15 K, 59590 kPa | 1502.49 ± 4.1 | –
318.15 K, 100 kPa | 1457.05 ± 2.5 | –
318.15 K, 500 kPa | – | 1192.3 ± 3.1
318.15 K, 1830 kPa | 1458.31 ± 2.5 | –
318.15 K, 3500 kPa | – | 1202.9 ± 3.1
318.15 K, 7000 kPa | – | 1215 ± 3.1
